IC50 data for 20 compounds are collected here from ChEMBL document CHEMBL1138665, “Probing the activity differences of simple and complex brominated aryl compounds against 15-soybean, 15-human, and 12-human lipoxygenase” (J Med Chem, 2004).

A short description of test [1]: Inhibitory effect on soybean 15-lipoxygenase. The arrangement: species or system Glycine max.
Test [2] has as its target T1, Polyunsaturated fatty acid lipoxygenase ALOX15 (Homo sapiens, UniProt P16050).
T1 sequence (P16050 whole entry): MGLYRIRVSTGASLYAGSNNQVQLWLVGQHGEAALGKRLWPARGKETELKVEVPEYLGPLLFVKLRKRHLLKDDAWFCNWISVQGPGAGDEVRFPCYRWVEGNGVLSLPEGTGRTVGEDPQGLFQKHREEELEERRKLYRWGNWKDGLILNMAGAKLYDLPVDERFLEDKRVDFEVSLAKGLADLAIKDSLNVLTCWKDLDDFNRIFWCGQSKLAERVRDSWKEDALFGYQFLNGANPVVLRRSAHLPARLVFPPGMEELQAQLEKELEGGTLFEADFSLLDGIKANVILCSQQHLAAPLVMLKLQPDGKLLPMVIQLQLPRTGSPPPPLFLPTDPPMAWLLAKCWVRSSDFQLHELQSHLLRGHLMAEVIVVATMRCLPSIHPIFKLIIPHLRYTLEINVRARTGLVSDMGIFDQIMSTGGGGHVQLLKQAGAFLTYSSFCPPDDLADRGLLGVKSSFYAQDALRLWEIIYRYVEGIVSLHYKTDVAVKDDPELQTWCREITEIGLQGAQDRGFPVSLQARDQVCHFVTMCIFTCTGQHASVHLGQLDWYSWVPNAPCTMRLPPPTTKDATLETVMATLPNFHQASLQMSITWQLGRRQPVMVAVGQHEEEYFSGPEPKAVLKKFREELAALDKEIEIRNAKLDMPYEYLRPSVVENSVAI
Put plainly: Inhibitory effect on human reticulocyte 15-lipoxygenase.

The target of test [3] is T2, Polyunsaturated fatty acid lipoxygenase ALOX12 (Homo sapiens, UniProt P18054).
T2 sequence (P18054 whole entry): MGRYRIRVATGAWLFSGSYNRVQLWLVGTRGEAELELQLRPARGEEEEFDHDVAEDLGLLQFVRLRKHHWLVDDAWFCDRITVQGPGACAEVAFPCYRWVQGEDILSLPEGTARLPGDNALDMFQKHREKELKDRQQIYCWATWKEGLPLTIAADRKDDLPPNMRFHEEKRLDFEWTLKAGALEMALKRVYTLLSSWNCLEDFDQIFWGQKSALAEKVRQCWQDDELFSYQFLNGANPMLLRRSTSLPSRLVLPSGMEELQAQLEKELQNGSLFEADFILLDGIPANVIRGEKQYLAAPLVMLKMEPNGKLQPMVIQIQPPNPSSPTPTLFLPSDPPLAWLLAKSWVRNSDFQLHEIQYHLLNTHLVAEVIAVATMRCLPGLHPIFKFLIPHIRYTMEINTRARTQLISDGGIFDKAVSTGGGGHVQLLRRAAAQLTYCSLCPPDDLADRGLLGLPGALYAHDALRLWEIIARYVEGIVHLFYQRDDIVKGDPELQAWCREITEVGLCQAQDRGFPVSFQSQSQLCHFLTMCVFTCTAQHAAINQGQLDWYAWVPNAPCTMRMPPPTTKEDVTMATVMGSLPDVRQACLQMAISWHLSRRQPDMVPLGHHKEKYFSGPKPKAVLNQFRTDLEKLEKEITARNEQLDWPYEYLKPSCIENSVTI
The test is described as follows: Inhibitory effect on human platelet 12-lipoxygenase.

Turning to `Oc1c(Br)cccc1Br`, the IC50 in test [1], in test [2] and in test [3] was greater than 100 µM each time.
For `Oc1c(Br)cc(Br)cc1Oc1c(Br)cc(Br)c(Br)c1O`, the results for the IC50 in test [1], in test [2] and in test [3] were greater than 100 µM, 2.2 µM and 6.2 µM, respectively.
For `Oc1c(Br)cc(Br)cc1Oc1c(O)c(Br)c(Br)c(Br)c1Br`, the values for the IC50 in test [1], in test [2] and in test [3] were greater than 100 µM, 0.79 µM and 0.41 µM, respectively.
Regarding `CC(C)(c1ccc(O)c(Br)c1)c1cc(Br)c(O)c(Br)c1`, the values for the IC50 in test [1], in test [2] and in test [3] were greater than 100 µM, 5 µM and 7 µM, respectively.
`OCc1ccc(Br)cc1`: the IC50 in test [1], in test [2] and in test [3] was greater than 100 µM throughout.
Regarding `CC(C)(c1cc(Br)c(O)c(Br)c1)c1cc(Br)c(O)c(Br)c1`, the half-maximal inhibitory concentration (IC50) in test [1] is greater than 100 µM; in test [2], 4 µM; in test [3] it was 10 µM.
The matching figures for `Oc1cccc(Br)c1`: greater than 100 µM, greater than 100 µM and greater than 100 µM.
In test [1], `CC(Cc1ccc(O)c(O)c1)[C@H](C)Cc1ccc(O)c(O)c1` (stereo not given in full) returned an IC50 of 0.18 µM.
As to `Oc1ccccc1Br`, the IC50 in test [1], in test [2] and in test [3] was greater than 100 µM each time.
For the compound `Oc1c(Br)cc(Br)c(Br)c1Oc1ccc(Br)cc1Br`, the values for the half-inhibitory concentration (IC50) in test [1], in test [2] and in test [3] were 9 µM, 5 µM and 6 µM, respectively.
With `COc1cc(Br)cc(Br)c1Oc1cc(Br)cc(Br)c1O`, the IC50 was greater than 100 µM in test [1], 10 µM in test [2] and 12 µM in test [3].
Take `O=C(N/C=C/c1ccc(O)c(Br)c1)/C(Cc1cc(Br)c(O)c(Oc2c(Br)cc(C/C(=N\O)C(=O)NCCc3ccc(O)c(Br)c3)cc2Br)c1)=N/O`: the IC50 in test [1] was 59 µM; in test [2], 2 µM; in test [3], 0.4 µM.
Take `Oc1ccc(Br)cc1Br`: the IC50 in test [1] and in test [3] was greater than 100 µM each time.
Consider `CCOc1ccc(Br)cc1`, for which the IC50 in test [1], in test [2] and in test [3] was greater than 100 µM in each case.
For the compound `Oc1ccc(Br)cc1Oc1c(O)ccc(Br)c1Br`, the results for the IC50 in test [1] and in test [3] were greater than 100 µM and 47 µM, respectively.
As for `Oc1c(Br)c(Br)c(Br)c(Br)c1Oc1ccc(Br)cc1Br`, the IC50 came out at 7 µM in test [1], 1.8 µM in test [2] and 0.7 µM in test [3].
For `Oc1ccc(Br)cc1`, the IC50 in test [1] is 48 µM; in test [2], 55 µM; in test [3], greater than 100 µM.
The matching figures for `O=C1N/C=C/c2ccc(c(Br)c2)Oc2cc(cc(Br)c2O)CCNC(=O)/C(=N/O)Cc2ccc(c(Br)c2)Oc2cc(cc(Br)c2O)C/C1=N\O` [BASTADIN 7]: 27 µM, 4 µM and 2.3 µM.
On to `Oc1cc(Br)c(Br)c2c1Oc1cc(Br)cc(Br)c1O2` [SPONGIADIOXIN A], for which the IC50 in test [1] was greater than 100 µM; in test [3], 50 µM.
In the case of `Oc1cc(Br)cc2c1Oc1cc(Br)cc(Br)c1O2` [SPONGIADIOXIN C], the IC50 is greater than 100 µM in test [1], 0.8 µM in test [2] and 30 µM in test [3].

One may read the IC50 as the midpoint of a concentration-inhibition curve. The low end stands for greater potency in that assay, the high end for weaker potency in that assay.
